One assay deals with SJSA-1 cells. Nature of the assay: Cell lysis by peptidomimetic macrocycles (LDH release). The format is cell-based. The conditions noted are these: 1 h at 37C.
The next assay addresses T1, MDMX (Homo sapiens, UniProt O15151).
T1 sequence (O15151 1-125): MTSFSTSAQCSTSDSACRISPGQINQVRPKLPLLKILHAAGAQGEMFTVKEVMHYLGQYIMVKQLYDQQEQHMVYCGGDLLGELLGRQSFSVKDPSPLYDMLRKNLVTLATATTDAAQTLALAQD
Put plainly: Competitive fluorescence polarization assay for MDMX. Format: binding. As to conditions: competitive FP assay; for pIC50: read-out: IC50 (MDMX); for pKi: read-out: Ki (MDMX). For orientation: In fluorescence polarisation assays a small probe gives low polarisation when free and higher when bound to something large.

A further assay concerns Caspase 3. Nature of the assay: Caspase 3 detection assay in SJSA1 cells. The format is cell-based. As to conditions: 48 h, Caspase 3 activation over DMSO-treated cells; for caspase 3 uM: 3 uM peptide; for caspase 10 uM: 10 uM peptide; for caspase 30 uM: 30 uM peptide.
The next assay concerns the target MDM2 (Homo sapiens, UniProt Q00987). Nature of the assay: Competitive fluorescence polarization assay for MDM2. Format: binding. The conditions noted are these: competitive FP assay, MDM2; for pIC50: read-out: IC50 (MDM2); for pKi: read-out: Ki (MDM2).

From patent publication US8927500B2, “Peptidomimetic macrocycles” (Aileron Therapeutics, Inc., priority 2012, dated 2015) come the findings set out here.

pIC50, pKi: −log10 of the molar value. Where a SMILES comes first, the peptide text is derived from it. Bridges are numbered along the chain shown (N, C = ends). [ ]: non-standard residue; d: D form. R8 = C=CCCCCCC[C@@](C)(N)C(=O)O; S5 = C=CCCC[C@](C)(N)C(=O)O Some results are limits rather than exact numbers.

MDM2, sequence (Q00987 1-125): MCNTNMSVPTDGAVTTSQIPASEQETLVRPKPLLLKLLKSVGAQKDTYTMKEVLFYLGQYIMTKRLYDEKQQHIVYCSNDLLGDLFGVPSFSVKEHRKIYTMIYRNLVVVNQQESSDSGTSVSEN

On to `CC[C@H](C)[C@H](NC(=O)[C@H](C)NC(=O)[C@H](C)NC(=O)[C@]1(C)CCCC=CCCCCCC[C@@](C)(NC(=O)[C@H](Cc2ccccc2)NC(=O)[C@@H](NC(=O)[C@H](CC(C)C)NC(C)=O)[C@@H](C)O)C(=O)N[C@@H](C)C(=O)N[C@@H](Cc2ccc(O)cc2)C(=O)N[C@@H](Cc2c[nH]c3ccccc23)C(=O)N[C@@H](C)C(=O)N[C@@H](CCC(N)=O)C(=O)N[C@@H](CC(C)C)C(=O)N1)C(=O)N[C@H](CC(C)C)C(N)=O` (single isomer, unassigned) [compound 82], for which, in the assay on SJSA-1 cells, the “6.25 uM % Lysed cells (1 h LDH)” value is listed as 0%, the “25 uM % Lysed cells (1 h LDH)” value came to 0% and the “50 uM % Lysed cells (1 h LDH)” value is 1%.
As to `CC[C@H](C)[C@H](NC(=O)[C@H](C)NC(=O)[C@H](C)NC(=O)[C@]1(C)CCCC=CCCCCCC[C@@](C)(NC(=O)[C@H](Cc2ccccc2)NC(=O)[C@@H](NC(=O)[C@H](CC(C)C)NC(C)=O)[C@@H](C)O)C(=O)N[C@@H](CCC(=O)O)C(=O)N[C@@H](Cc2ccc(C(=O)O)cc2)C(=O)N[C@@H](Cc2c[nH]c3cc(Cl)ccc23)C(=O)N[C@@H](C)C(=O)N[C@@H](CCC(N)=O)C(=O)N[C@@H](CC2CCC2)C(=O)N1)C(=O)N[C@H](C)C(N)=O` (single isomer, unassigned) [compound 335], in the assay on SJSA-1 cells, the “6.25 uM % Lysed cells (1 h LDH)” value is reported as 0%, the “25 uM % Lysed cells (1 h LDH)” value is reported as 0% and the “50 uM % Lysed cells (1 h LDH)” value was 1%.
Take `CCCCCC(=O)N[C@@H](CC(C)C)C(=O)N[C@H](C(=O)N[C@@H](Cc1ccccc1)C(=O)N[C@]1(C)CCCCCCC=CCCC[C@@](C)(C(=O)N[C@@H](CO)C(=O)N[C@@H](C)C(=O)N[C@@H](C)C(N)=O)NC(=O)[C@H](CCC(C)C)NC(=O)[C@H](CCC(N)=O)NC(=O)[C@H](C)NC(=O)[C@H](Cc2c[nH]c3ccccc23)NC(=O)[C@H](Cc2ccc(O)cc2)NC(=O)[C@H](CCC(=O)O)NC1=O)[C@@H](C)O` [compound 280]: in the assay with SJSA-1 cells, the “6.25 uM % Lysed cells (1 h LDH)” value was found to be 5%, the “25 uM % Lysed cells (1 h LDH)” value was 6% and the “50 uM % Lysed cells (1 h LDH)” value is 18%. Further, at MDMX, the pIC50 (commonly −log10 of the IC50, conventionally taken in molar units) was 6.00 to 7.00 and the pKi (as a rule, −log10 of the Ki, conventionally taken in molar units) was 7.00 to 8.00.
Consider `CCCC[C@H](NC(=O)[C@H](C)NC(=O)[C@H](C)NC(=O)[C@]1(C)CCCC=CCCCCCC[C@@](C)(NC(=O)[C@H](Cc2ccccc2)NC(=O)[C@@H](NC(=O)[C@H](CC(C)C)NC(C)=O)[C@@H](C)O)C(=O)N[C@@H](C)C(=O)N[C@@H](Cc2ccc(O)cc2)C(=O)N[C@@H](Cc2c[nH]c3ccccc23)C(=O)N[C@@H](Cc2cc(=O)oc3cc(OC)c(OC)cc23)C(=O)N[C@@H](CCC(N)=O)C(=O)N[C@@H](CC(C)C)C(=O)N1)C(=O)N[C@@H](C)C(N)=O` [compound 415], for which, in the assay with SJSA-1 cells, the “6.25 uM % Lysed cells (1 h LDH)” value worked out at 4%, the “25 uM % Lysed cells (1 h LDH)” value is 2% and the “50 uM % Lysed cells (1 h LDH)” value is recorded as 2%.
`CC(=O)N[C@@H](CC(C)C)C(=O)N[C@H](C(=O)N[C@@H](Cc1ccccc1)C(=O)N[C@]1(C)CCCCCCC=CCCC[C@@](C)(C(=O)N[C@@H](CO)C(=O)N[C@@H](C)C(=O)N[C@@H](C)C(N)=O)NC(=O)[C@H](C2CCCC2)NC(=O)[C@H](CCC(N)=O)NC(=O)[C@H](C)NC(=O)[C@H](Cc2c[nH]c3ccccc23)NC(=O)[C@H](Cc2ccc(O)cc2)NC(=O)[C@H](CCC(=O)O)NC1=O)[C@@H](C)O` (single isomer, unassigned) [compound 150]: in the assay on SJSA-1 cells, the “6.25 uM % Lysed cells (1 h LDH)” value is recorded as −1%, the “25 uM % Lysed cells (1 h LDH)” value is 0% and the “50 uM % Lysed cells (1 h LDH)” value is 2%. At MDMX, the pIC50 is 6.00 to 7.00 and the negative-log Ki (pKi) was 7.00 to 8.00.
As to `CC(=O)N[C@@H](CCC(=O)O)C(=O)N[C@H](C(=O)N[C@@H](Cc1ccccc1)C(=O)N[C@]1(C)CCCCCCC=CCCC[C@@](C)(C(=O)N[C@@H](C)C(=O)N[C@@H](C)C(=O)N[C@@H](C)C(=O)N[C@@H](C)C(=O)N[C@@H](C)C(=O)N[C@H](C)C(N)=O)NC(=O)[C@H](CC(C)C)NC(=O)[C@H](CCC(N)=O)NC(=O)[C@H](C)NC(=O)[C@H](Cc2c[nH]c3ccccc23)NC(=O)[C@H](Cc2ccc(O)cc2)NC(=O)[C@H](CCC(=O)O)NC1=O)[C@@H](C)O` (single isomer, unassigned) [compound 340], in the assay on SJSA-1 cells, the “6.25 uM % Lysed cells (1 h LDH)” value was 0%, the “25 uM % Lysed cells (1 h LDH)” value is 0% and the “50 uM % Lysed cells (1 h LDH)” value amounted to 0%.
On to `CC(C)CC[C@@H]1NC(=O)[C@H](CCC(N)=O)NC(=O)[C@H](C)NC(=O)[C@H](Cc2c[nH]c3ccccc23)NC(=O)[C@H](Cc2ccc(O)cc2)NC(=O)[C@H](CCC(=O)O)NC(=O)[C@](C)(NC(=O)[C@H](Cc2ccccc2)NC(=O)[C@@H](NC(=O)[C@H](CC(C)C)NC(=O)C(C)(C)C)[C@@H](C)O)CCCCCCC=CCCC[C@@](C)(C(=O)N[C@@H](CO)C(=O)N[C@@H](C)C(=O)N[C@@H](C)C(N)=O)NC1=O` [compound 284], for which, in the assay on SJSA-1 cells, the “6.25 uM % Lysed cells (1 h LDH)” value is 5%, the “25 uM % Lysed cells (1 h LDH)” value was 5% and the “50 uM % Lysed cells (1 h LDH)” value worked out at 6%. Further, on MDMX, the pIC50 was 6.00 to 7.00 and the negative-log Ki (pKi) was 7.00 to 8.00.
Consider `CC[C@H](C)[C@H](NC(=O)[C@H](C)NC(=O)[C@H](C)NC(=O)[C@]1(C)CCCC=CCCCCCC[C@@](C)(NC(=O)[C@H](Cc2ccccc2)NC(=O)[C@@H](NC(=O)[C@H](CCC(=O)O)NC(C)=O)[C@@H](C)O)C(=O)N[C@@H](CCC(=O)O)C(=O)N[C@@H](Cc2c[nH]cn2)C(=O)N[C@@H](Cc2c[nH]c3ccccc23)C(=O)N[C@@H](C)C(=O)N[C@@H](CCC(N)=O)C(=O)N[C@@H](CC(C)C)C(=O)N1)C(=O)N[C@H](C)C(N)=O` (single isomer, unassigned) [compound 174], for which, in the assay on SJSA-1 cells, the “6.25 uM % Lysed cells (1 h LDH)” value turned out to be 5%, the “25 uM % Lysed cells (1 h LDH)” value is listed as 2% and the “50 uM % Lysed cells (1 h LDH)” value came out at 5%.
With `CC(=O)N[C@@H](CC(C)C)C(=O)N[C@H](C(=O)N[C@@H](Cc1ccccc1)C(=O)N[C@]1(C)CCCCCCC=CCCC[C@@](C)(C(=O)N[C@@H](C)C(=O)N[C@H](C(=O)NCC(N)=O)C(C)C)NC(=O)[C@H](CC(C)C)NC(=O)[C@H](CCC(N)=O)NC(=O)[C@H](C)NC(=O)[C@H](Cc2c[nH]c3ccccc23)NC(=O)[C@H](Cc2ccc(O)cc2)NC(=O)[C@H](C)NC1=O)[C@@H](C)O` (single isomer, unassigned) [compound 108], in the assay with SJSA-1 cells, the “6.25 uM % Lysed cells (1 h LDH)” value was 0%, the “25 uM % Lysed cells (1 h LDH)” value is listed as 0% and the “50 uM % Lysed cells (1 h LDH)” value is recorded as 1%.
As for `CC(=O)N[C@@H](CC(C)C)C(=O)N[C@H](C(=O)N[C@@H](Cc1ccccc1)C(=O)N[C@]1(C)CCCCCCC=CCCC[C@@](C)(C(=O)N[C@@H](C)C(=O)N[C@@H](Cc2c[nH]cn2)C(=O)N[C@@H](Cc2ccccc2)C(=O)N[C@@H](C)C(N)=O)NC(=O)[C@H](CC(C)C)NC(=O)[C@H](CCC(N)=O)NC(=O)[C@H](C(C)C)NC(=O)[C@H](Cc2c[nH]c3ccccc23)NC(=O)[C@H](Cc2c[nH]cn2)NC(=O)[C@H](C)NC1=O)[C@@H](C)O` [compound 190] (Ac-LTF[R8]AHWVQL[S5]AHFA-NH2; staple 4-11), in the assay on SJSA-1 cells, the “6.25 uM % Lysed cells (1 h LDH)” value is on record as −1%, the “25 uM % Lysed cells (1 h LDH)” value stood at 0% and the “50 uM % Lysed cells (1 h LDH)” value is 1%.
As for `CC(=O)N[C@@H](CC(C)C)C(=O)N[C@H](C(=O)N[C@@H](Cc1ccccc1)C(=O)N[C@]1(C)CCCCCCC=CCCC[C@@](C)(C(=O)N[C@@H](C)C(=O)N[C@@H](Cc2c[nH]cn2)C(=O)N[C@@H](Cc2ccccc2)C(=O)N[C@@H](C)C(N)=O)NC(=O)[C@H](CC(C)C)NC(=O)[C@H](CCC(N)=O)NC(=O)[C@H](C)NC(=O)[C@H](Cc2c[nH]c3ccccc23)NC(=O)[C@H](Cc2ccc(O)cc2)NC(=O)[C@H](C)NC1=O)[C@@H](C)O` [compound 50] (Ac-LTF[R8]AYWAQL[S5]AHFA-NH2; staple 4-11), in the assay with Caspase 3, the “caspase 3 uM” value is given as 8, the “caspase 10 uM” value came out at 29 and the “caspase 30 uM” value amounted to 29. Also, on MDMX, the pIC50 was 6.00 to 7.00 and the negative-log Ki (pKi) is 7.00 to 8.00. At MDM2, the pIC50 is 7.00 to 8.00 and the negative-log Ki (pKi) is above 8.00.
Take `CC(C)CC[C@@H]1NC(=O)[C@H](CCC(N)=O)NC(=O)[C@H](C)NC(=O)[C@H](Cc2c[nH]c3ccccc23)NC(=O)[C@H](Cc2ccc(O)cc2)NC(=O)[C@H](CCC(=O)O)NC(=O)[C@](C)(NC(=O)[C@H](Cc2ccccc2)NC(=O)[C@@H](NC(=O)[C@H](CC(C)C)NC(=O)CN(C)C)[C@@H](C)O)CCCCCCC=CCCC[C@@](C)(C(=O)N[C@@H](CO)C(=O)N[C@@H](C)C(=O)N[C@@H](C)C(N)=O)NC1=O` [compound 279]: in the assay on SJSA-1 cells, the “6.25 uM % Lysed cells (1 h LDH)” value is reported as 6%, the “25 uM % Lysed cells (1 h LDH)” value stood at 5% and the “50 uM % Lysed cells (1 h LDH)” value was 6%. In addition, on MDMX, the pIC50 is 7.00 to 8.00 and the negative logarithm of the Ki (pKi) was 7.00 to 8.00.
As for `CC[C@H](C)[C@H](NC(=O)[C@H](C)NC(=O)[C@H](C)NC(=O)[C@]1(C)CCCC=CCCCCCC[C@@](C)(NC(=O)[C@H](Cc2ccccc2)NC(=O)[C@@H](NC(=O)[C@H](CC(C)C)NC(C)=O)[C@@H](C)O)C(=O)N[C@@H](C)C(=O)N[C@@H](Cc2ccc(O)cc2)C(=O)N[C@@H](Cc2c[nH]c3ccccc23)C(=O)N[C@@H](C)C(=O)N[C@@H](CCC(N)=O)C(=O)N[C@@H](CC(C)C)C(=O)N1)C(=O)N[C@H](C)C(N)=O` (single isomer, unassigned) [compound 70], in the assay on Caspase 3, the “caspase 3 uM” value is 1, the “caspase 10 uM” value is listed as 9 and the “caspase 30 uM” value amounted to 26. In addition, on MDMX, the negative logarithm of the IC50 (pIC50) is 6.00 to 7.00 and the pKi is 7.00 to 8.00. Further, on MDM2, the negative-log IC50 (pIC50) was 6.00 to 7.00 and the pKi was above 8.00.
